Experimental data published in the Deep4Chem optical property database.
Values belong to the molecule of their own block, whether it stands above or below them.

Assay: solvent given as SMILES

SMILES: CCN(CC)c1ccc2cc(/C=C/c3cccc[n+]3CCCS(=O)(=O)[O-])c(=O)oc2c1
emission maximum (in C1CCOC1): 641 nm | emission maximum (in CC#N): 634 nm | emission maximum (in CC(C)=O): 639 nm | emission maximum (in CS(C)=O): 642 nm | emission maximum (in Cc1ccccc1): 641 nm | emission maximum (in O): 627 nm | emission maximum (in OCC(O)CO): 625 nm

SMILES: COC1(OC)C2(Cl)c3nc4cc(-c5cccs5)ccc4nc3C1(Cl)C1C[C@H]3[C@@H](CC12)C1(Cl)c2nc4ccc(-c5cccs5)cc4nc2C3(Cl)C1(OC)OC (some centres undefined)
emission maximum (in CC#N): 461 nm | emission maximum (in CCCCCC): 412 nm | emission maximum (in CCOC(C)=O): 439 nm | emission maximum (in CO): 491 nm | emission maximum (in Cc1ccccc1): 427 nm | emission maximum (in ClC(Cl)Cl): 441 nm | emission maximum (in ClCCl): 445 nm

SMILES: Cc1ccc(C2=C3C=CC(c4ccccc4)=[N+]3[B-](F)(F)n3c(Cl)ccc32)cc1
emission maximum (in C1CCCCC1): 553 nm | emission maximum (in C1CCOC1): 555 nm | emission maximum (in C1COCCO1): 554 nm | emission maximum (in CCOC(C)=O): 551 nm | emission maximum (in CO): 549 nm | emission maximum (in Cc1ccccc1): 558 nm | emission maximum (in ClC(Cl)Cl): 555 nm

SMILES: N#CC1=c2c3cccc4cccc(c43)n2[B-](F)(F)[n+]2ccccc21
emission maximum (in C1CCOC1): 530 nm | emission maximum (in CC#N): 527 nm | emission maximum (in CCCCCC): 530 nm | emission maximum (in Cc1ccccc1): 535 nm | emission maximum (in ClCCl): 530 nm

SMILES: Cc1cc(N2c3ccccc3C(C)(C)c3ccccc32)ccc1-c1cc(-c2ccc(N3c4ccccc4C(C)(C)c4ccccc43)cc2C)ncn1
emission maximum (in Cc1ccccc1): 477 nm | emission maximum (in O=P(c1ccccc1)(c1ccccc1)c1ccccc1Oc1ccccc1P(=O)(c1ccccc1)c1ccccc1): 477 nm

SMILES: N#Cc1cc(-n2c3ccccc3c3ccccc32)c(-n2c3ccccc3c3ccccc32)cc1C#N
emission maximum (in C1CCOC1): 501 nm | emission maximum (in Cc1ccccc1): 473 nm | emission maximum (in c1ccc2c(c1)c1ccccc1n2-c1ccc(-c2ccc(-n3c4ccccc4c4ccccc43)cc2)cc1): 474 nm

SMILES: Cc1cccc(C2=CC3=C(c4c(C)cc(C)cc4C)c4cc(-c5cccc(C)c5)c(-c5cccc(C)c5)n4[B-](F)(F)[N+]3=C2c2cccc(C)c2)c1
emission maximum (in C1CCCCC1): 625 nm | emission maximum (in C1CCOC1): 626 nm | emission maximum (in CC#N): 620 nm | emission maximum (in Cc1ccccc1): 628 nm | emission maximum (in ClCCl): 627 nm

SMILES: N#Cc1cc(-c2cc(C#N)c(-n3c4ccccc4c4ccccc43)cc2-n2c3ccccc3c3ccccc32)c(-n2c3ccccc3c3ccccc32)cc1-n1c2ccccc2c2ccccc21
emission maximum (in Cc1ccccc1): 453 nm

Continued, values first:

emission maximum (in CCCCCC): 536 nm | emission maximum (in c1ccccc1): 605 nm
SMILES: O=C1OC(=O)c2ccc(N(c3ccccc3)c3ccc4ccc5cccc6ccc3c4c56)c3cccc1c23

emission maximum (in CO): 566 nm
SMILES: CCOC(=O)CCCCCn1c2ccc(F)cc2c(=O)c2cc3c(cc21)c(=O)c1cc(F)ccc1n3CCCCCC(=O)OCC

emission maximum (in C1CCOC1): 476 nm | emission maximum (in CC#N): 509 nm | emission maximum (in CCCCCCC): 459 nm | emission maximum (in CS(C)=O): 518 nm | emission maximum (in ClCCl): 480 nm
SMILES: CN(C)c1ccc(/C=C/c2cccnn2)cc1

emission maximum (in CC#N): 430 nm | emission maximum (in ClCCl): 417 nm
SMILES: Cc1cc(-c2ccc(C(C)(C)C)cc2)cc(C)[o+]1

emission maximum (in ClCCl): 474 nm
SMILES: COc1ccc(C#Cc2nc3ccccc3nc2-c2ccn(-c3ccccc3)c2)cc1

emission maximum (in ClCCl): 419 nm
SMILES: c1ccc(-c2cn3ccc[n+]3[n-]2)cc1

emission maximum (in C1CCCCC1): 424 nm | emission maximum (in CC#N): 568 nm | emission maximum (in CC(C)O): 580.16 nm | emission maximum (in CO): 622 nm | emission maximum (in CS(C)=O): 563.56 nm | emission maximum (in ClC(Cl)Cl): 505 nm | emission maximum (in c1ccccc1): 472.87 nm
SMILES: CC(=O)c1ccc(-c2nc3ccc(N(C)C)c(Br)c3s2)cc1

emission maximum (in ClCCl): 546 nm
SMILES: [O-][n+]1c(/C=C/c2ccc3ccccc3c2)nc(N2CCOCC2)c2c1CCCC2

emission maximum (in ClC(Cl)Cl): 682 nm
SMILES: CCCCCCCCOc1ccc(-c2c3c4n(c(-c5ccc(OCCCCCCCC)cc5)c3c3n2[B-](F)(F)[n+]2c(ccc5ccccc52)N=3)[B-](F)(F)[n+]2c(ccc3ccccc32)N=4)cc1

emission maximum (in O): 708 nm
SMILES: CC1=CC(C)=[N+]2C1=C(c1ccc(O)cc1)c1c(C)cc(/C=C/C=C3/N(C)c4ccccc4C3(C)C)n1[B-]2(F)F

emission maximum (in C1CCOC1): 409 nm
SMILES: N#Cc1ccc(N)c(/C=C/C(F)(F)F)c1

emission maximum (in C1CCCCC1): 471 nm | emission maximum (in CC#N): 501 nm | emission maximum (in CCO): 521 nm | emission maximum (in c1ccccc1): 482 nm
SMILES: Nc1cccc2c1C(=O)c1ccccc1-2
